Reference: patent US20070021351A1, “Liver/plasma concentration ratio for dosing hepatitis C virus protease inhibitor” (Schering Corporation, priority 2005, published 2007)

Tests used:
[1] = test system: HCV-RNA viral load (genotype 1); experiment: Example 3: pharmacodynamics, effect on HCV-RNA viral load; type: in vivo; conditions: 400 mg TID
Method: Multiple escalating doses of compound of Formula Ia were administered for 14 days to HCV positive subjects who were genotype 1 Interferon-a (with or without ribavirin) non responders. In a randomized, placebo controlled, third party blind study, multiple doses of 100 mg BID, 200 mg BID, 400 mg BID, 400 mg TID, and 600 mg TID of compound of Formula Ia or placebo in a 3:1 ratio with or without food were evaluated. […]
Serial HCV-RNA data were evaluated for antiviral activity and for the change from baseline in the serum HCV RNA levels.

[2] = Pharmacokinetic parameter values on administration to a subject (summary); type: in vivo
Method: When the compounds are administered in fed subjects the bioavailability of the compound is increased about 100% and the mean Tmax of the compound of Formula Ia is increased about 60%.

[3] = Example 3: multiple-dose (14 days) pharmacokinetics in HCV positive subjects; type: in vivo, human
Method: Multiple escalating doses of compound of Formula Ia were administered for 14 days to HCV positive subjects who were genotype 1 Interferon-a (with or without ribavirin) non responders. In a randomized, placebo controlled, third party blind study, multiple doses of 100 mg BID, 200 mg BID, 400 mg BID, 400 mg TID, and 600 mg TID of compound of Formula Ia or placebo in a 3:1 ratio with or without food were evaluated.
• Group 1: Compound of Formula Ia 100 mg (2×50 mg) BID or matching placebo×14 days without food. • Group 2: Compound of Formula Ia 200 mg (2×100 mg) BID or matching placebo×14 days without food. • Group 3: Compound of Formula Ia 400 mg (4×100 mg) BID or matching placebo×14 days without food. • Group 4: Compound of Formula Ia 400 mg (4×100 mg) TID or matching placebo×14 days without food. • Group 5: Compound of Formula Ia 400 mg (4×100 mg) BID or matching placebo×14 days with food. • Group 6: Compound of Formula Ia 600 mg (6×100 mg) BID or matching placebo×14 days without food. • Group 7: Compound of Formula Ia 600 mg (6×100 mg) BID or matching placebo×14 days with food. • Group 8: compound of Formula Ia 600 mg (6×100 mg) TID or matching placebo×14 days without food. • Group 9: compound of Formula Ia intermediate dose or matching placebo×14 days with or without food.
Each subject was randomized to one treatment group. On Day 14, only the AM dose was administered.
For Cohorts Without Food: Treatments were administered on the morning (approximately 8 AM) of Days 1 and 14 following a 10 hour fast. Fasting continued until 4 hours postdose. Water was allowed during the fasting period. On the nonpharmacokinetic collection days (Days 2 through 13) breakfast and dinner were consumed either 90 minutes before or 90 minutes after each dose. All treatments were administered with approximately 240 mL of noncarbonated water. All doses on Days 1-14 were administered at approximately the same time each day, for cohorts with BID dosing study treatment were administered approximately 12 hours apart at 8 AM and 8 PM, and for cohorts with TID dosing study treatment were administered approximately 8 hours apart at 8 AM, 4 PM, and 12 Midnight.
For Cohorts With TID Dosing: All volunteers were dosed three times daily at approximately the same time each day; the doses were administered approximately 8 hours apart at 8 AM, 4 PM, and 12 Midnight.
For Cohorts With BID Dosing: All volunteers were dosed twice a day at approximately the same time each day. The doses were administered approximately 12 hours apart at 8 AM and 8 PM.
On Day 14, all subjects received only their assigned AM dose. During the dosing the capsule(s) were swallowed whole, not chewed or crushed. After dosing, the oral cavity was inspected to assure the volunteer had completely swallowed the capsule(s). […] Water was permitted throughout the fasting and nonfasting periods. […]
The plasma concentration data of compound of Formula Ia was used to estimate the following pharmacokinetic parameters: • Cmax—Maximum observed plasma concentration; • Tmax—Time of observed maximum plasma concentration; • AUC(O-t)—Area under the plasma concentration-time curve over the dosing interval • AUC (tf)—Area under the plasma concentration-time curve to the final quantifiable sample • CL/F—Apparent total body clearance. • t½—Terminal phase half life • Vd/F—Apparent volume of distribution • R—Accumulation ratio […]

[4] = human, plasma, oral, summary range, dose not stated

SMILES: CC(C)(C)NC(=O)N[C@H](C(=O)N1C[C@H]2[C@@H]([C@H]1C(=O)NC(CC1CCC1)C(=O)C(N)=O)C2(C)C)C(C)(C)C (mixture of isomers) [Formula Ia, (1R,5S)-N-[3-Amino-1-(Cyclobutylmethyl)-2,3-Dioxopropyl]-3-[2(S)-[[[(1,1-Dimethylethyl)Amino]Carbonyl]Amino]-3,3-Dimethyl-1-Oxobutyl]-6,6-Dimethyl-3-Azabicyclo[3.1.0]Hexan-2(S)-Carboxamide]
- dose dependence of antiviral activity ([1]; 100 mg BID, 200 mg BID, 400 mg BID, all subjects): antiviral activity increased in a dose-related manner
- viral load reduction from baseline, average minimum reduction ([1]; 14 days, genotype 1 interferon non responders): 2 logs
- increase of bioavailability ([2]; fed subjects): about 100%
- increase of mean Tmax ([2]; fed subjects): about 60%
- Cmax [2, 4]: 50 to 800 ng/mL
- Tmax [2, 4]: 1 to 5 h
- Vd/F [2, 4]: 1500 to 6000 L
- half-life [2, 4]: 2 to 15 h
- AUC(0-t) ([2]; human, plasma, oral, summary range, dose not stated, read-out: AUC(0-8 hr)): 500 to 3000 ng·h/mL
- mean accumulation ratio for BID dosing ([3]; BID dosing, 14 days): 1
- Cmax ([3]; Day 14, 400 mg BID without food, mean, n=11): 459 ng/mL
- AUC(0-12 hr) ([3]; Day 14, 400 mg BID, mean, n=11): 1644 ng·h/mL
- concentration at 11 day ([3]; human, plasma, multiple oral dosing, read-out: steady-state level (trough, Cmin)): ~200 ng/mL
- time at which steady-state levels were reached ([3]; trough data (Cmin)): ~11 days
